According to US6638955B2, “Antibiotic oxazolidinone derivatives” (priority 1996, dated 2003):
Converted amounts (≈) assume the structure as drawn.

What was measured:
Test in all cases: MIC, agar-dilution, standard in-vitro test
Format in all cases: cell-based
[1] = system: Streptococcus pyogenes C203; settings: agar with 5% defibrinated horse blood, 10^4 CFU/spot, 37° C., 5% carbon dioxide, 48 hours
Description: (§1) The following results were obtained on a standard in-vitro test system. The activity is described in terms of the minimum inhibitory concentration (MIC) determined by the agar-dilution technique with an inoculum size of 10^4 CFU/spot.
(§2) Streptococci and enterococci were tested on agar supplemented with 5% defibrinated horse blood, an inoculum of 10^4 CFU/spot and an incubation temperature of 37° C. in an atmosphere of 5% carbon dioxide for 48 hours—blood is required for the growth of some of the test organisms.

Enterococcus faecalis = settings: agar with 5% defibrinated horse blood, 10^4 CFU/spot, 37° C., 5% carbon dioxide, 48 hours
Description: as §1, §2

Bacillus subtilis = settings: 10^4 CFU/spot
Source text: as §1

[2] = system: Staphylococcus aureus MRQR (methicillin resistant quinolone resistant); settings: 10^4 CFU/spot, 37° C., 24 hours
Description: as §1
(§3) Staphylococci were tested on agar, using an inoculum of 10^4 CFU/spot and an incubation temperature of 37° C. for 24 hours—standard test conditions for the expression of methicillin resistance.

[3] = system: Staphylococcus aureus Novb. Res (Novobiocin resistant); settings: 10^4 CFU/spot, 37° C., 24 hours
Description: as §1, §3

[4] = system: Staphylococcus aureus MRQS (methicillin resistant quinolone sensitive); settings: 10^4 CFU/spot, 37° C., 24 hours
Description: as §1, §3

[5] = system: Coagulase Negative Staphylococcus MR (methicillin resistant); settings: 10^4 CFU/spot, 37° C., 24 hours
Description: as §1, §3

[6] = system: Coagulase Negative Staphylococcus MS (methicillin sensitive); settings: 10^4 CFU/spot, 37° C., 24 hours
Description: as §1, §3

[7] = system: Staphylococcus aureus Oxford; settings: 10^4 CFU/spot, 37° C., 24 hours
Description: as §1, §3

Compound `CC(=O)NC[C@H]1CN(c2ccc(C3=CCN(C(=O)OC(C)(C)C)CC3)cc2)C(=O)O1` [Example 1, N-((5S)-3-(4-(1-tert-butoxycarbonyl-1,2,5,6-tetrahydropyrid-4-yl)phenyl)-2-oxoxazolidin-5yl-methyl)acetamide] has an MIC [1] of 1.0 µg/mL (≈ 2.41 µM), an MIC (Enterococcus faecalis) of 1.0 µg/mL (≈ 2.41 µM) and an MIC (Bacillus subtilis) of 0.25 µg/mL (≈ 0.602 µM). The MIC [2] was 0.5 µg/mL (≈ 1.2 µM), the MIC [3] was 0.5 µg/mL (≈ 1.2 µM) and the MIC [4] was 0.5 µg/mL (≈ 1.2 µM). The MIC [5] was 1.0 µg/mL (≈ 2.41 µM), the MIC [6] was 0.25 µg/mL (≈ 0.602 µM) and the MIC [7] was 1.0 µg/mL (≈ 2.41 µM).
